# Measured values: patent publication US20250163104A1, “MACROCYCLIC IMMUNOMODULATORS” (priority 2021, published 2025)
# Where a SMILES comes first, the peptide text is derived from it. Bridges are numbered along the chain shown (N, C = ends). [ ]: non-standard residue; d: D form. The star is where a group is joined. ξ: configuration not given here. Phe(4-COOH) = N[C@@H](Cc1ccc(C(=O)O)cc1)C(=O)O; Bip = N[C@@H](Cc1ccc(-c2ccccc2)cc1)C(=O)O; Phe(3-Me) = Cc1cccc(C[C@H](N)C(=O)O)c1; 4Pal = N[C@@H](Cc1ccncc1)C(=O)O; Cha = N[C@@H](CC1CCCCC1)C(=O)O; dCha = N[C@H](CC1CCCCC1)C(=O)O; Carboxymethyl = O=C(O)C*; Nle = CCCC[C@H](N)C(=O)O; Orn = NCCC[C@H](N)C(=O)O; Dab = NCC[C@H](N)C(=O)O; Dap = NC[C@H](N)C(=O)O; ξOrn = NCCCC(N)C(=O)O
# Biological target: T1, human PD-1 / PD-L1-Ig binding on Jurkat cell line over-expressing human PD-1 (Jurkat-PD-1) (Homo sapiens, UniProt Q15116)
# T1 construct: expressed in transfected cells; host or cells: Jurkat
# T1 sequence (Q15116 25-288): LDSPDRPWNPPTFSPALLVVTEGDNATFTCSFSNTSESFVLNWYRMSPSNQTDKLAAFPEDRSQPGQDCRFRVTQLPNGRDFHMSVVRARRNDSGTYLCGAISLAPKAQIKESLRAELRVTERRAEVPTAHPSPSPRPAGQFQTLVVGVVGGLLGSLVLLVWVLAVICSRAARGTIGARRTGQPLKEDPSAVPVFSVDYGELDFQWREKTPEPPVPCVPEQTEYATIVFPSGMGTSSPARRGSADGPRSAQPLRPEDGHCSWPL
# Experiment: Jurkat-PD-1 Cell Binding High-Content Screening Assay (CBA)
# Type: cell-based
# Conditions: Jurkat HPD1_PDL1 IC50, Jurkat-PD-1 cells, PE-labeled PD-L1-Ig 20 nM final
# Summary of the method: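 Jurkat cells over-expressing human PD-1, in DMEM/10% FCS, pre-incubated with compound 2 h at 37° C. PE-labeled human PD-L1-Ig (20 nM final) added for 1 h; cells fixed in paraformaldehyde with Hoechst 33342 nuclear stain, washed, and bound fluorescence quantified by high-content imaging.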
row,Structure (SMILES),IC50
1,CC(C)C[C@@H]1NC(=O)[C@H](Cc2c[nH]c3ccccc23)NC(=O)[C@H](CC(=O)O)NC(=O)[C@H](Cc2ccc(OCC(=O)O)cc2)NC(=O)[C@H](CN)NC(=O)CSC[C@@H](C(=O)NCC(N)=O)NC(=O)[C@H](CO)NC(=O)[C@H](C(C)C)NC(=O)[C@H](CC2CCCCC2)NC(=O)[C@H](CC(N)=O)NC(=O)[C@@H](CC(C)C)NC(=O)[C@H](CN)NC(=O)[C@H](C(C)C)NC(=O)[C@H](Cc2ccc(-c3ccccc3)cc2)NC1=O [Compound 1394] ({CH2CO}-[Dap]Y(Carboxymethyl)DWL[Bip]V[Dap][dL]N[Cha]VSCG-NH2; thioether N-14),7.6 nM

# Same assay, conditions: Jurkat-PD-1 cells, PE-labeled PD-L1-Ig 20 nM final; read-out: Jurkat HPD1_PDL1 IC50
row,IC50,Structure (SMILES)
1,5.5 nM,CC(C)[C@@H]1NC(=O)[C@H](Cc2c[nH]c3ccccc23)NC(=O)[C@H](CC(=O)O)NC(=O)[C@H](Cc2ccc(C(=O)O)cc2)NC(=O)[C@H](Cc2ccncc2)NC(=O)CSC[C@@H](C(=O)N[C@@H](C)C(N)=O)NC(=O)[C@H]([C@@H](C)O)NC(=O)[C@H](C(C)C)NC(=O)[C@H](CC2CCCCC2)NC(=O)[C@H](CCN)NC(=O)[C@@H](CC2CCCCC2)NC(=O)[C@H](CCCN)NC(=O)[C@H](CCC(=O)O)NC(=O)[C@H](Cc2ccc(-c3ccccc3)cc2)NC1=O [Compound 1439] ({CH2CO}-[4Pal][Phe(4-COOH)]DWV[Bip]E[Orn][dCha][Dab][Cha]VTCA-NH2; thioether N-14)
2,803 nM,CC(C)C[C@H]1NC(=O)[C@H](CCCN)NC(=O)[C@H](CCC(=O)O)NC(=O)[C@H](Cc2ccc(-c3ccccc3)cc2)NC(=O)[C@H](C(C)C)NC(=O)[C@H](Cc2c[nH]c3ccccc23)NC(=O)[C@H](CCC(=O)O)NC(=O)[C@H](Cc2ccc(OCC(=O)O)cc2)NC(=O)[C@H](CN)NC(=O)CSC[C@@H](C(=O)N[C@@H](C)C(N)=O)NC(=O)[C@H]([C@@H](C)O)NC(=O)[C@H](C(C)C)NC(=O)[C@H](CC2CCCCC2)NC(=O)[C@H](CCN)NC1=O [Compound 2198] ({CH2CO}-[Dap]Y(Carboxymethyl)EWV[Bip]E[Orn][dL][Dab][Cha]VTCA-NH2; thioether N-14)
3,4.9 nM,Cc1cccc(C[C@@H]2NC(=O)[C@H](CC(=O)O)NC(=O)[C@H](Cc3ccc(OCC(=O)O)cc3)NC(=O)[C@H](CN)NC(=O)CSC[C@@H](C(=O)N[C@@H](CCN)C(N)=O)NC(=O)C(CCCN)NC(=O)[C@H](C(C)C)NC(=O)[C@H](CC3CCCCC3)NC(=O)[C@H](CCN)NC(=O)[C@@H](CC(C)C)NC(=O)[C@H](CCCN)NC(=O)[C@H](Cc3ccc(O)cc3)NC(=O)[C@H](Cc3ccc(-c4ccccc4)cc3)NC(=O)[C@H](Cc3ccc(O)cc3)NC2=O)c1 (stereo partly drawn) [Compound 2256] ({CH2CO}-[Dap]Y(Carboxymethyl)D[Phe(3-Me)]Y[Bip]Y[Orn][dL][Dab][Cha]V[ξOrn]C[Dab]-NH2; thioether N-14)
4,7.2 nM,Cc1cccc(C[C@@H]2NC(=O)[C@H](CC(=O)O)NC(=O)[C@H](Cc3ccncc3)NC(=O)[C@H](Cc3ccc(OCC(=O)O)cc3)NC(=O)CSC[C@@H](C(=O)N[C@@H](C)C(N)=O)NC(=O)[C@H]([C@@H](C)O)NC(=O)[C@H](C(C)C)NC(=O)[C@H](CC3CCCCC3)NC(=O)[C@H](CCN)NC(=O)[C@@H](CC(C)C)NC(=O)[C@H](CCCN)NC(=O)[C@H](CCC(=O)O)NC(=O)[C@H](Cc3ccc(-c4ccccc4)cc3)NC(=O)[C@H](C(C)C)NC2=O)c1 [Compound 1419] ({CH2CO}-Y(Carboxymethyl)[4Pal]D[Phe(3-Me)]V[Bip]E[Orn][dL][Dab][Cha]VTCA-NH2; thioether N-14)
5,30.4 nM,CC(C)C[C@H]1NC(=O)[C@H](CCCN)NC(=O)[C@H](C(C)C)NC(=O)[C@H](Cc2ccc(-c3ccccc3)cc2)NC(=O)[C@H](C(C)C)NC(=O)[C@H](Cc2cccc(C(F)(F)F)c2)NC(=O)[C@H](CC(=O)O)NC(=O)[C@H](Cc2ccc(OCC(=O)O)cc2)NC(=O)[C@H](Cc2ccc(OCC(=O)O)cc2)NC(=O)CSC[C@@H](C(=O)N[C@@H](C)C(N)=O)NC(=O)[C@H]([C@@H](C)O)NC(=O)[C@H](C(C)C)NC(=O)[C@H](CC2CCCCC2)NC(=O)[C@H](CCN)NC1=O [Compound 1574]
6,34.4 nM,CCCC[C@H]1NC(=O)[C@H](CCCN)NC(=O)[C@H](C(C)C)NC(=O)[C@H](Cc2ccc(-c3ccccc3)cc2)NC(=O)[C@H](C(C)C)NC(=O)[C@H](Cc2c[nH]c3ccccc23)NC(=O)[C@H](CC(=O)O)NC(=O)[C@H](Cc2ccncc2)NC(=O)[C@H](CN)NC(=O)CSC[C@@H](C(=O)N[C@@H](C)C(N)=O)NC(=O)[C@H]([C@@H](C)O)NC(=O)[C@H](C(C)C)NC(=O)[C@H](CC2CCCCC2)NC(=O)[C@H](CCN)NC1=O [Compound 1695]
7,29.4 nM,CC(C)C[C@@H]1NC(=O)[C@H](CCN)NC(=O)[C@@H](CC(C)C)NC(=O)[C@H](CC(=O)O)NC(=O)[C@H](C(C)C)NC(=O)[C@H](Cc2ccc(-c3ccccc3)cc2)NC(=O)[C@H](C(C)C)NC(=O)[C@H](Cc2c[nH]c3ccccc23)NC(=O)[C@H](CC(=O)O)NC(=O)[C@H](Cc2ccc(O)cc2)NC(=O)[C@H](CC(N)=O)NC(=O)CSC[C@@H](C(=O)N[C@@H](C)C(N)=O)NC(=O)[C@H]([C@@H](C)O)NC(=O)[C@H](C(C)C)NC1=O [Compound 1033] ({CH2CO}-NYDWV[Bip]VD[dL][Dab]LVTCA-NH2; thioether N-14)
8,20.7 nM,CCCC[C@@H]1NC(=O)[C@H](CCN)NC(=O)[C@@H](CC(C)C)NC(=O)[C@H](CCCN)NC(=O)[C@H](C(C)C)NC(=O)[C@H](Cc2ccc(-c3ccccc3)cc2)NC(=O)[C@H](C(C)C)NC(=O)[C@H](Cc2c[nH]c3ccccc23)NC(=O)[C@H](CC(=O)O)NC(=O)[C@H](Cc2ccc(O)cc2)NC(=O)[C@H](CN)NC(=O)CSC[C@@H](C(=O)N[C@@H](C)C(N)=O)NC(=O)[C@H]([C@@H](C)O)NC(=O)[C@H](C(C)C)NC1=O [Compound 1169] ({CH2CO}-[Dap]YDWV[Bip]V[Orn][dL][Dab][Nle]VTCA-NH2; thioether N-14)
9,10 nM,CCCC[C@@H]1NC(=O)[C@H](CCN)NC(=O)[C@@H](CC(C)C)NC(=O)[C@H](CCCN)NC(=O)[C@H]([C@@H](C)CC)NC(=O)[C@H](Cc2ccc(-c3ccccc3)cc2)NC(=O)[C@H](C(C)C)NC(=O)[C@H](Cc2cccc(C)c2)NC(=O)[C@H](CC(=O)O)NC(=O)[C@H](Cc2ccc(C(=O)O)cc2)NC(=O)[C@H](Cc2ccncc2)NC(=O)CSC[C@@H](C(=O)N[C@@H](C)C(N)=O)NC(=O)[C@H]([C@@H](C)O)NC(=O)[C@H](C(C)C)NC1=O [Compound 1191]
10,6.6 nM,CC(C)C[C@H]1NC(=O)[C@H](CCCN)NC(=O)[C@H](C(C)C)NC(=O)[C@H](Cc2ccc(-c3ccccc3)cc2)NC(=O)[C@H](C(C)C)NC(=O)[C@H](Cc2c[nH]c3ccccc23)NC(=O)[C@H](CC(=O)O)NC(=O)[C@H](Cc2ccc(C(=O)O)cc2)NC(=O)[C@H](Cc2ccc(OCC(=O)O)cc2)NC(=O)CSC[C@@H](C(=O)N[C@@H](C)C(N)=O)NC(=O)[C@H](CCCN)NC(=O)[C@H](C(C)C)NC(=O)[C@H](CC2CCCCC2)NC(=O)[C@H](CCN)NC1=O [Compound 1742] ({CH2CO}-Y(Carboxymethyl)[Phe(4-COOH)]DWV[Bip]V[Orn][dL][Dab][Cha]V[Orn]CA-NH2; thioether N-14)
